Molecular target: T1, ERBB2 (HER2) (Homo sapiens, UniProt P04626)
T1 construct: purchased Thermo Fisher Scientific (Life Technologies) SelectScreen
Experiment: SelectScreen Z'LYTE
Type: biochemical
How it was run: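 SelectScreen broad panel; activity (Z'LYTE, Adapta) plus binding formats. ATP: Km app for CSF1R Z'LYTE; 10 for CAMK1 Adapta. Readout = % per kinase.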

T1 sequence (P04626 23-1255): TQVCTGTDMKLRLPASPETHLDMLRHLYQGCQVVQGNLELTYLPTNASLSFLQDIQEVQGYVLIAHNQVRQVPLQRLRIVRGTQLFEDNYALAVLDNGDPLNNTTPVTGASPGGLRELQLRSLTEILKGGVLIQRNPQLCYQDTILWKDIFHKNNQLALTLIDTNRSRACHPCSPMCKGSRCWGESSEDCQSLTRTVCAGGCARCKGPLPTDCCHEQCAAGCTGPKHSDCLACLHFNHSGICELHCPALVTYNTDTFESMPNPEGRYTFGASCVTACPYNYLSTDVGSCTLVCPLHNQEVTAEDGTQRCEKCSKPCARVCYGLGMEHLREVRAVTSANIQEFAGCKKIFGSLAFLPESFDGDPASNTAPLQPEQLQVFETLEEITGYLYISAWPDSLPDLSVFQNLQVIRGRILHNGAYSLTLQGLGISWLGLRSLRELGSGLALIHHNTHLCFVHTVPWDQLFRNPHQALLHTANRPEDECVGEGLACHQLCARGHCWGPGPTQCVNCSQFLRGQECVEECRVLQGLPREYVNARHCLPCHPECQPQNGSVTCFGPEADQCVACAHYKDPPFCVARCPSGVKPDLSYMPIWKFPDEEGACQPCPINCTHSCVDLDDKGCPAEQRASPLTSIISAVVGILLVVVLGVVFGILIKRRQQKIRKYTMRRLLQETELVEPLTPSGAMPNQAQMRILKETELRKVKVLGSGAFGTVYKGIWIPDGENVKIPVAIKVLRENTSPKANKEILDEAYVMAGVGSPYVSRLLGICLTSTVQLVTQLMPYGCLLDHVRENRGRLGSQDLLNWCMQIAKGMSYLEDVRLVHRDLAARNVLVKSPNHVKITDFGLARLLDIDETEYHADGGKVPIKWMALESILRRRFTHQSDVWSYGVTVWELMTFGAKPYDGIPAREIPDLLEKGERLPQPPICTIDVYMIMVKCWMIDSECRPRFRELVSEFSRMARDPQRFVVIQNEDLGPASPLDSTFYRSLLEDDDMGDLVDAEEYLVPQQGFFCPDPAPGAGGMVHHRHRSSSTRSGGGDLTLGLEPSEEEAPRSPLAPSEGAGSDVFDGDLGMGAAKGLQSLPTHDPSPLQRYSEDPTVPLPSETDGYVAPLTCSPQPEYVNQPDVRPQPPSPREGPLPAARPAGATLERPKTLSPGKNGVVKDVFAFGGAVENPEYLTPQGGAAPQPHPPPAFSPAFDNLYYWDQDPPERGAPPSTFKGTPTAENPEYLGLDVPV

## CN(C(=O)CN1CCOCC1)c1ccc2sc3c(-c4cccc5c(=O)cc(N6CC7CCC(C6)O7)oc45)cccc3c2c1 [NU5455]
  inhibition at 1 µM: 5.6%
